Measurements from patent publication US7842702B2, “Treatment for irritable bowel syndrome” (Astellas Pharma Inc., priority 2007, dated 2010).
Converted amounts (≈) assume the structure as drawn.

How the values were obtained:
[1] = test system: abdominal contractions caused by colorectal distention in the acetic acid-induced IBS model; assay: Viscerosensory response to colorectal distention (number of abdominal contractions) in the acetic acid-induced IBS model; type: in vivo, rat; conditions: for inhibitory effects on abdominal contractions, concomitant use with alosetron: alosetron 0.1 mg/kg, po + compound 1 0.01 mg/kg, po or cromolyn 20 mg/kg, ip, FIG. 8
Experimental: (§1) Preparation of an IBS model was carried out by the following method with reference to the method of Jun-Ho La et al. (World J. Gastroenterol., 2003, vol. 9 (12), pp. 2791-2795). Male Sprague-Dawley (SD) rats or Wistar rats after an overnight fast were used. Colitis was induced by intracolonic instillation of 1 ml 4% acetic acid at 8 cm proximal to the anus for 30 seconds under light ether anesthesia. Then, 1 ml physiological saline was instilled to dilute the acetic acid and flush the colon twice. Rats were recovered from colitis for 6 days, and used for experiments shown in Examples 2 and 3 at 7 days after induction of colitis as “IBS rat (4% acetic acid)”. In addition, rats received physiological saline instead of acetic acid was used as a “control group (saline)”.
Male Wistar rats under no fasting at 7 days after 4% acetic acid treatment or physiological saline treatment were used. Under light ether anesthesia, a latex balloon of 6 cm in length was inserted intra-anally until the end of the balloon was 2 cm inside the rectum. The catheter connecting from the balloon was fixed to the tail base with a tape and connected to a pressure transducer via a three-way cock. After restoration from the ether anesthesia in a cage (23.5×19×19 cm), nociceptive behavior (the number of abdominal contractions) to colorectal distention (15, 30, 45, 60 mmHg) applied stepwise at 5 minute intervals was measured. […] In this connection, each compound was administered 30 minutes before the colorectal distention.

[2] = test system: restraint stress-induced defecation in the acetic acid-induced IBS model; assay: Restraint stress-induced defecation in the acetic acid-induced IBS model; type: in vivo, rat; conditions: for ED50: Rattus norvegicus, male SD rats, 4% acetic acid IBS model, 30 min before restraint, stools for 1 hour; for ED50 / inhibitory effects on restraint stress-induced defecation (dose dependence): compound 1 po, cromolyn ip; for inhibitory effects on restraint stress-induced defecation (dose dependence): FIGS. 2 and 3
Experimental: as §1
Cromolyn was used by dissolving it in physiological saline, and compound 1 and ketotifen were used by dissolving them in 0.5% methylcellulose aqueous solution, respectively. Each compound was intraperitoneally administered (cromolyn) or orally administered (compound 1 and ketotifen) to male SD rats under no fasting at 7 days after the 4% acetic acid treatment or physiological saline treatment. The animals were put into restraint stress cages (product name: KN-468 (B), mfd. by Natsume Seisakusho) 30 minutes thereafter and the number and weight of the stools excreted for 1 hour were measured (“stress”). On the other hand, the normal group was put into individual cage and the number and weight of the stools excreted for 1 hour were measured in the same manner (“normal”). Results of the restraint stress-induced defecation in the agent-nonadministered group are shown in FIG. 1, and the results of agent-administered groups in FIGS. 2 to 4 respectively.

[3] = test system: spontaneous defecation in mice; conditions: mouse, in vivo
Experimental: Doxantrazole was used by dissolving it in 5% (w/v) NaHCO3 aqueous solution, and compound 1 was used by dissolving it in 0.5% methylcellulose aqueous solutions Male ddY mice under no fasting were reared in individual cages from the evening of the previous day of the experiment. On the day of the experiment, each compound was administered intraperitoneally (doxantrazole) or orally (compound 1), and the number of stools spontaneously excreted for 2 hours after the initiation of the experiment was measured.

[4] = test system: rat abdominal mast cells; assay: Release of histamine by an antigen-antibody reaction using rat abdominal mast cells (degranulation); type: cell-based; conditions: Mast cell, fluorescent method with o-phthalaldehyde, read-out: Degranulation (mast cells) (IC50 μg/ml)
Experimental: In addition, the inhibitory effects of compound 1 and cromolyn on the release of histamine by an antigen-antibody reaction using rat abdominal mast cells were measured by a fluorescent method which is a modified method of Shore et al. (The Journal of Pharmacology and Experimental Therapeutics, 1959, vol. 127, pp. 182-186) with o-phthalaldehyde.

[5] = test system: IBS patients; conditions: cited from earlier work

SMILES | inhibitory effects on abdominal contractions, concomitant use with alosetron [1] | ED50 [2] | inhibitory effects on restraint stress-induced defecation (dose dependence) [2] | effect on the spontaneous defecation in mice [3] | IC50 [4] | also measured
O=C(Nc1nnn[nH]1)c1cc(Oc2ccccc2)c2ccccn2c1=O [Compound 1, N-(1H-tetrazol-5-yl)-1-phenoxy-4H-quinolizin-4-one-3-carboxamide] | additively | 0.0071 mg/kg | in a dose-dependent manner | no effect | 0.0074 µg/mL (≈ 0.0212 µM) | inhibitory effects on abdominal contractions, concomitant use with ramosetron ([1]; compound 1 0.01 mg/kg, po + ramosetron 0.01 mg/kg, po, FIG. 7): additively; inhibitory effects on the abdominal contractions caused by the colorectal distention ([1]; male Wistar rats, 0.01 and 1 mg/kg, po, 30 min before distention, FIG. 6): dose-dependent inhibitory effects; inhibition of restraint stress-induced defecation at 1 mg/kg, po ([2]; 1 mg/kg, po): inhibited it almost completely
O=C(O)c1cc(=O)c2c(OCC(O)COc3cccc4oc(C(=O)O)cc(=O)c34)cccc2o1 [Cromolyn, sodium cromoglycate] | reinforcement of the effect was not found | 19.9 mg/kg | in a dose-dependent manner |  | 2.2 µg/mL | inhibition of restraint stress-induced defecation at 100 mg/kg, ip ([2]; 100 mg/kg, ip): inhibited it almost completely
Cc1[nH]cnc1CN1CCc2c(c3ccccc3n2C)C1=O [alosetron] |  |  |  |  |  | inhibitory effects on abdominal contractions, alosetron alone ([1]; 0.1 mg/kg, po): maximal inhibitory effects; improvement rate for abdominal symptoms and diarrhea [5]: about 50%
O=C1c2ccccc2S(=O)(=O)c2cc(-c3nnn[nH]3)ccc21 [doxantrazole] |  |  |  | inhibitory tendency |  | 
CN1CCC(=C2c3ccccc3CC(=O)c3sccc32)CC1 [ketotifen] |  |  |  |  |  | inhibitory effects on restraint stress-induced defecation at the maximum ([2]; po, maximum effect, FIG. 4): about 30%
Cn1cc(C(=O)[C@@H]2CCc3nc[nH]c3C2)c2ccccc21 [ramosetron] |  |  |  |  |  | inhibitory effects on abdominal contractions, ramosetron alone ([1]; 0.01 mg/kg, po): maximal inhibitory effects
